Usually inhibition stands for the percentage by which the read-out fell short of the control. The term IC50 denotes the concentration needed to halve the response being measured. The Ki is a measure of affinity in units of concentration, obtained from inhibition or displacement.

In one test the target is T1, human recombinant MAO-B (Homo sapiens, UniProt P27338).
T1 sequence (P27338 1-520): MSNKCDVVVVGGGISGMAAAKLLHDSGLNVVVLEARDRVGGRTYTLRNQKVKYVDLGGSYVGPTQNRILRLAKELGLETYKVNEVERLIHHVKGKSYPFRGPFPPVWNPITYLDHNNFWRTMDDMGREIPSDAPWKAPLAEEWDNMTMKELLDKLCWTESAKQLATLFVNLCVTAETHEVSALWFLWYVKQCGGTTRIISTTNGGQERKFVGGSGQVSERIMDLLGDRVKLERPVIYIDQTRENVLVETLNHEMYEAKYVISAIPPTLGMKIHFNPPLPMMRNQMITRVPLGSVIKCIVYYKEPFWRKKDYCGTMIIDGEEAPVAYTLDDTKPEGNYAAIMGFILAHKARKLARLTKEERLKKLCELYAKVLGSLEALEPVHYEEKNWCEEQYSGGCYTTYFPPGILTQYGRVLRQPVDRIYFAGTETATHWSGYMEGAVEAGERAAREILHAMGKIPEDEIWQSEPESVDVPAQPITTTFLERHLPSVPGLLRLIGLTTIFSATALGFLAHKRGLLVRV
Nature of the test: Inhibition of monoamine oxidase B. The class given is biochemical. The following applies: for inhibition at 10 µM: read-out: MAO-B % Inhibition at 10 µM, 10 µM; for inhibition at 10 µM / MAO-B % Inhibition at 10 µM: mean of three experiments.

Another test addresses human AChE (Homo sapiens, UniProt P22303). Briefly: Inhibition of AChE. It is filed as biochemical. The following applies: for inhibition at 10 µM: read-out: AChE Inhibition at 10 µM [%].
The target of a further test is human H3R (Homo sapiens, UniProt Q9Y5N1). Nature of the test: Human H3R radioligand displacement assay. The following applies: for inhibition at 1 µM: read-out: hH3R Inhibition at 1 µM [%] ±SD (n). A general note: In a radioligand displacement assay an active substance lowers the binding of a labelled ligand.
The next test addresses human H4R (Homo sapiens, UniProt Q9H3N8). Nature of the test: Human H4R radioligand displacement assay. The note with it: read-out: hH4R Inhibition at 10 µM [%] (n).
A further test has as its target T2, human recombinant MAO-A (Homo sapiens, UniProt P21397).
T2 sequence (P21397 1-527): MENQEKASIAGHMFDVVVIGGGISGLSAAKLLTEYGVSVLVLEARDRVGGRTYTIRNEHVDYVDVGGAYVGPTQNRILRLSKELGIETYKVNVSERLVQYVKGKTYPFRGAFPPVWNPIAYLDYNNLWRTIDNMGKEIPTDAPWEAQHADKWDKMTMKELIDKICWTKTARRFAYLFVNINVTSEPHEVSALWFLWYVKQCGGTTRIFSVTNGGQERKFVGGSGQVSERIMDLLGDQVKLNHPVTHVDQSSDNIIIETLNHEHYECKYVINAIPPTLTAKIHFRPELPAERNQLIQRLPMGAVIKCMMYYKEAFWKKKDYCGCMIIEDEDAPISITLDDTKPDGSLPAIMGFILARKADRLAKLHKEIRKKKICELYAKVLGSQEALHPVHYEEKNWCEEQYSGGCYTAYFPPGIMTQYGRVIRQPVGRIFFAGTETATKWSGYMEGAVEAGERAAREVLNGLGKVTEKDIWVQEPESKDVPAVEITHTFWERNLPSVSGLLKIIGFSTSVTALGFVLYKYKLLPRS
Briefly: Inhibition of monoamine oxidase A. The class given is biochemical. The note with it: read-out: MAO-A % Inhibition at 10 µM.

Another test concerns the target human H1R (Homo sapiens, UniProt P35367). Briefly: Human H1R radioligand displacement assay. The class given is binding. The note with it: for inhibition at 10 µM: read-out: hH1R Inhibition at 10 µM [%] ±SD (n); for inhibition at 1 µM: read-out: hH1R Inhibition at 1 µM [%] (n).
Another test addresses BuChE from human serum (Homo sapiens, UniProt P06276). Nature of the test: Inhibition of BuChE. It is filed as biochemical. The following applies: for inhibition at 10 µM: read-out: hBuChE % Inhibition at 10 µM.

human AChE, sequence (P22303 32-614): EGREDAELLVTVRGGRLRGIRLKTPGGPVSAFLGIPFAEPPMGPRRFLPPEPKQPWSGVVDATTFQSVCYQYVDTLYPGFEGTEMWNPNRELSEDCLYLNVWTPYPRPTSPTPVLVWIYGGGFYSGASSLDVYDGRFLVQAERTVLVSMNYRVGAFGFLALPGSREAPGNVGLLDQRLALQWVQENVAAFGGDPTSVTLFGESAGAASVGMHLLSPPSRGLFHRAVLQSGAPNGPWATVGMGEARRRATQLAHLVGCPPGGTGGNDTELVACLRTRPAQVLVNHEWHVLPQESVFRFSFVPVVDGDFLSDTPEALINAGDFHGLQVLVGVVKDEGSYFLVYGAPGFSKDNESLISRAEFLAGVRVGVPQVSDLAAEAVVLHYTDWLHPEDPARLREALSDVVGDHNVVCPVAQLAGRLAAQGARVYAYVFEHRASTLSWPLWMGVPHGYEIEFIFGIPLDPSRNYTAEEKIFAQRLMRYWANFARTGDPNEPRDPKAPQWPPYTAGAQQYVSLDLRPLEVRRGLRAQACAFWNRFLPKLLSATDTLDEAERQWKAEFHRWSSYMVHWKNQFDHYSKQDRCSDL
BuChE from human serum, sequence (P06276 29-602): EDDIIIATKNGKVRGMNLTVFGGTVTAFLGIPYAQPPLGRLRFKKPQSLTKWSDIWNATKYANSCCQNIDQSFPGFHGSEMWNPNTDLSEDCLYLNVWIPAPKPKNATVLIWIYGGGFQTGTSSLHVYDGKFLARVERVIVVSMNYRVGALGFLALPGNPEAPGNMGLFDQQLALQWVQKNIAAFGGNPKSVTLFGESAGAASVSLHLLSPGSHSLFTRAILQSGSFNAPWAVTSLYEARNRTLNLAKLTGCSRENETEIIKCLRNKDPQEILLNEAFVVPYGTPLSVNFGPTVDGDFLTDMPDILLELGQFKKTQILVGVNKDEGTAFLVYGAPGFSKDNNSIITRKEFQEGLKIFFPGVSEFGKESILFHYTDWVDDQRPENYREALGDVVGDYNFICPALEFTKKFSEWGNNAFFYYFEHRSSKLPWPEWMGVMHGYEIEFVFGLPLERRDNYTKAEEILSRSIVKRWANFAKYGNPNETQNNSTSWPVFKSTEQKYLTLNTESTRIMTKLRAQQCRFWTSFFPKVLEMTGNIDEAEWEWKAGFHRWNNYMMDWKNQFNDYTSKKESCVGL
human H1R, sequence (P35367 whole entry): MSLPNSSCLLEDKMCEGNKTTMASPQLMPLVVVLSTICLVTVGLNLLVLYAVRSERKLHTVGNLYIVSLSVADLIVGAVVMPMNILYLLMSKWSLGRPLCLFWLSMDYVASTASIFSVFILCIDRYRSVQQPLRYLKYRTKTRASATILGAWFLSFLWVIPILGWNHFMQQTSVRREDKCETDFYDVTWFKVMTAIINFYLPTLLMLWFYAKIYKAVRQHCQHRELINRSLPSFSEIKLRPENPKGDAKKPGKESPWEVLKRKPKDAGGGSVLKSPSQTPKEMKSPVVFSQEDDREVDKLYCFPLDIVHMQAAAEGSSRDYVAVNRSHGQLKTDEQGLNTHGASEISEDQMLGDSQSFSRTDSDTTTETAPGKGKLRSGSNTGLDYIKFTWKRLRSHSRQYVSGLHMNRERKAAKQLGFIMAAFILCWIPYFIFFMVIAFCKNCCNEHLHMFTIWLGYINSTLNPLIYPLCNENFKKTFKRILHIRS
human H4R, sequence (Q9H3N8 whole entry): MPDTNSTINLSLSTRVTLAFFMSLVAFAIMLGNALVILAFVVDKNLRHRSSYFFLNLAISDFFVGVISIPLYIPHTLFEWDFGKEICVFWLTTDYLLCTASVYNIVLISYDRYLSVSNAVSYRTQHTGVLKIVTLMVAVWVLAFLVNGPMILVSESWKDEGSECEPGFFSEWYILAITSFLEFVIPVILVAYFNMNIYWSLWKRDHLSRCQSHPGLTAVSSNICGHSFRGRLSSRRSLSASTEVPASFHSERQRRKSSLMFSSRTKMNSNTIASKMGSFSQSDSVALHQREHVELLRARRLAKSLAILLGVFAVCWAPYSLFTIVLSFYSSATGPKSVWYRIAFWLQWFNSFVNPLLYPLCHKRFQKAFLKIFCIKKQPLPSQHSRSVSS
human H3R, sequence (Q9Y5N1 whole entry): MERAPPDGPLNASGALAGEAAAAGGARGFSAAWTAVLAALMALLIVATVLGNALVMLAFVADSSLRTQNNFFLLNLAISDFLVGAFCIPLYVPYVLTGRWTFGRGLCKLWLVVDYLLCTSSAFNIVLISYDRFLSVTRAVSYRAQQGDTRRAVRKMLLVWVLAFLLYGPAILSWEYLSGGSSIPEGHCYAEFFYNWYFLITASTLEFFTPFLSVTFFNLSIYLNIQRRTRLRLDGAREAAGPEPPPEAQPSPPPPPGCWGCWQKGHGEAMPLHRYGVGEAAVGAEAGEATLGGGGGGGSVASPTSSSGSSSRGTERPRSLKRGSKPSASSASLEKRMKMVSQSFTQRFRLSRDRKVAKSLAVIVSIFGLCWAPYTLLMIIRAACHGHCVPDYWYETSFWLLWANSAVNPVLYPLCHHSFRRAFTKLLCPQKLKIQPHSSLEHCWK

With `O=C(c1nc2ccc(OCCN3CCCC3)cc2s1)N1CCCC1` [Compound 3b, Pyrrolidin-1-yl-(6-(2-(pyrrolidin-1-yl)ethoxy)benzo[d]thiazol-2-yl)methanone], the inhibition at 10 µM on human recombinant MAO-B was 47 ± 3%; at human AChE it was 95.3 ± 0.8%; at human H4R, 44.9 ± 18.1%; on human recombinant MAO-A, 58 ± 2%; at human H1R, less than 0%; on BuChE from human serum it was 70 ± 1%. Further, the values for the IC50 against human AChE and at BuChE from human serum were 440 ± 100 nM and 5310 ± 10 nM, respectively. In addition, the Ki on human H3R turned out to be 640 nM.

Consider `O=C(c1nc2ccc(OCCCN3CCCCC3)cc2s1)N1CCCCC1` [Compound 3d, Piperidin-1-yl-(6-(3-(piperidin-1-yl)propoxy)benzo[d]thiazol-2-yl)methanone], for which the inhibition at 10 µM at human recombinant MAO-B was 28 ± 5%; on human AChE, 33.6 ± 10.8%; at human H4R, 63.1 ± 11.2%; on human recombinant MAO-A, 33 ± 3%; at human H1R, 65.3 ± 9.2%; at BuChE from human serum it was 31 ± 1%. The 50% inhibitory concentration (IC50) at human AChE was greater than 10000 nM. At human H3R, this compound had a Ki of 74 nM.

Take `O=C(c1nc2ccc(OCCCN3CCCC3)cc2s1)N1CCCC1` [Compound 3h, Pyrrolidin-1-yl-(6-(3-(pyrrolidin-1-yl)propoxy)benzo[d]thiazol-2-yl)methanone]: the inhibition at 10 µM on human recombinant MAO-B was determined as 24 ± 4%; at human AChE it was 56.8 ± 7.14%; at human H4R, 54.3 ± 13%; on human recombinant MAO-A, 22 ± 4%; on human H1R, 39.1 ± 13%; on BuChE from human serum, 13 ± 2%. The midpoint of inhibition on human AChE, the IC50, lay at 7210 ± 2300 nM. The compound further displayed an inhibition constant (Ki) at human H3R of 38 nM.

In the case of `O=C(c1nc2ccc(OCCCCN3CCCCC3)cc2s1)N1CCCCC1` [Compound 3j, Piperidin-1-yl-(6-(4-(piperidin-1-yl)butoxy)benzo[d]thiazol-2-yl)methanone], the inhibition at 10 µM on human recombinant MAO-B was found to be 48 ± 5%; at human AChE, 54.8 ± 7.01%; at human H4R, 53.1 ± 11.7%; at human recombinant MAO-A, 29 ± 5%; at human H1R it was 42.8 ± 7.7%; at BuChE from human serum, 70 ± 2%. Also, the IC50 was found to be 8560 ± 2830 nM at human AChE and 3070 ± 240 nM at BuChE from human serum. The same compound registered an inhibitory constant (Ki) on human H3R of 170 nM.

The compound `O=C(NC1CC1)c1nc2ccc(OCCCCNC3CC3)cc2s1` [Compound 3m, N-Cyclopropyl-6-(4-(cyclopropylamino)butoxy)benzo[d]thiazole-2-carboxamide] showed a half-maximal inhibitory concentration (IC50) against human AChE greater than 10000 nM. Also, the inhibition at 10 µM on human AChE is 13.2 ± 8.07%; at human H4R, 53.6 ± 11.1%; on human H1R, 27 ± 10.6%. In addition, the inhibition at 1 µM on human H3R worked out at 67.8 ± 2.5%.

With `O=C(c1nc2ccc(OCCCCN3CCCC3)cc2s1)N1CCCC1` [Compound 3n, Pyrrolidin-1-yl(6-(4-(pyrrolidin-1-yl)butoxy)benzo[d]thiazol-2-yl)methanone], the inhibition at 10 µM on human recombinant MAO-B came to 49 ± 4%; on human AChE, 83 ± 3.27%; at human H4R, 57.9 ± 13.3%; on human recombinant MAO-A it was 31 ± 4%; on human H1R, 37.5 ± 7.5%; on BuChE from human serum, 80 ± 1%. The IC50 against human AChE is 1300 ± 100 nM; on BuChE from human serum it was 1320 ± 120 nM. The compound also gave a Ki at human H3R of 59 nM.

`O=C(c1nc2ccc(OCCCCCN3CCCCC3)cc2s1)N1CCCCC1` [Compound 3o, Piperidin-1-yl(6-((5-(piperidin-1-yl)pentyl)oxy)benzo[d]thiazol-2-yl)methanone]: the IC50 at human recombinant MAO-B was 3040 ± 460 nM; against human AChE it was greater than 10000 nM; at BuChE from human serum it was 2380 ± 320 nM. Besides, the “MAO-B % Inhibition at 10 µM” value on human recombinant MAO-B stood at 70 ± 4%. The inhibition at 10 µM is greater than 60% on human recombinant MAO-B; 27.8 ± 5.91% on human AChE; 38.8 ± 28% at human H4R; 37 ± 4% at human recombinant MAO-A; 91.2 ± 8.2% at human H1R; 81 ± 1% at BuChE from human serum. At human H3R, this compound returned a Ki of 68 nM.

In the case of `O=C(NC1CCCCCC1)c1nc2ccc(OCCCCCNC3CCCCCC3)cc2s1` [Compound 3p, N-Cycloheptyl-6-((5-(cycloheptylamino)pentyl)oxy)benzo[d]thiazole-2-carboxamide], on human AChE, the IC50 was greater than 10000 nM. The figures for the inhibition at 10 µM at human AChE, at human H4R and on human H1R were 9.5 ± 3.58%, 58.4 ± 8.3% and 17.5 ± 8.4%, respectively. In addition, the inhibition at 1 µM on human H3R is 34 ± 7.5%.

The compound `O=C(NCC1CCCCC1)c1nc2ccc(OCCCCCNCC3CCCCC3)cc2s1` [Compound 3q, N-(Cyclohexylmethyl)-6-((5-((cyclohexylmethyl)amino)pentyl)oxy)benzo[d]thiazole-2-carboxamide] yielded an IC50 on human AChE greater than 10000 nM. The inhibition at 10 µM at human AChE stood at 22.2 ± 5.5%; on human H4R, 49.1 ± 22.8%; on human H1R it was 40.6 ± 8.2%. At human H3R, this compound yielded a Ki greater than 3000 nM.

Take `O=C(NC1CC1)c1nc2ccc(OCCCCCNC3CC3)cc2s1` [Compound 3r, N-Cyclopropyl-6-((5-(cyclopropylamino)pentyl)oxy)benzo[d]thiazole-2-carboxamide]: the half-inhibitory concentration (IC50) against human AChE was greater than 10000 nM. Moreover, the inhibition at 10 µM at human AChE was found to be 14.8 ± 6.73%; at human H4R it was 51.6 ± 15.8%; on human H1R, 23.7 ± 12.7%. Further, the inhibition at 1 µM at human H3R turned out to be 38.8 ± 9.7%.

With `O=C(c1nc2ccc(OCCCCCN3CCCC3)cc2s1)N1CCCC1` [Compound 3s, Pyrrolidin-1-yl-(6-((5-(pyrrolidin-1-yl)pentyl)oxy)benzo[d]thiazol-2-yl)methanone], the IC50 at human recombinant MAO-B amounted to 1600 ± 160 nM; on BuChE from human serum it was 2350 ± 230 nM. For the same compound, at human recombinant MAO-B, the “MAO-B % Inhibition at 10 µM” value was 75 ± 3%. Also, the inhibition at 10 µM at human recombinant MAO-B is greater than 60%; on human AChE, 58.6 ± 3.73%; at human H4R, 63.7 ± 13%; on human recombinant MAO-A, 45 ± 3%; on human H1R it was 66.2 ± 7.3%; at BuChE from human serum it was 69 ± 1%. Besides, the Ki on human H3R amounted to 36 nM.

For the compound `O=C(NCCN1CCCC1)c1nc2ccc(OCCCNCCN3CCCC3)cc2s1` [Compound 4a, N-(2-(Pyrrolidin-1-yl)ethyl)-6-(3-((2-(pyrrolidin-1-yl)ethyl)amino)propoxy)benzo[d]thiazole-2-carboxamide], the inhibition at 10 µM at human recombinant MAO-B was 51 ± 1%; at human AChE, 86.9 ± 1.51%; at human recombinant MAO-A it was 29 ± 4%; at BuChE from human serum, 97 ± 1%. Further, the values for the IC50 against human AChE and against BuChE from human serum were 1240 ± 70 nM and 169 ± 19 nM, respectively. Moreover, the affinity at human H3R, expressed as Ki, was 53 nM. Also, the inhibition at 1 µM at human H1R worked out at 28.1 ± 39.1%.

`O=C(c1nc2ccc(OCCCN3CCCCCC3)cc2s1)N1CCCCCC1` [Compound 4b, Azepan-1-yl-(6-(3-(azepan-1-yl)propoxy)benzo[d]thiazol-2-yl)methanone]: the inhibition at 10 µM turned out to be 46 ± 5% on human recombinant MAO-B, 62.8 ± 3.35% at human AChE, 29 ± 2% on human recombinant MAO-A and 51 ± 2% on BuChE from human serum. The compound also came in with a concentration for half-maximal inhibition (IC50) on human AChE of 5910 ± 670 nM. Besides, the Ki on human H3R was 12 nM. In addition, the inhibition at 1 µM on human H1R stood at 41.9 ± 33.8%.

Regarding `CC1CCCN(CCCOc2ccc3nc(C(=O)N4CCCC(C)C4)sc3c2)C1` (stereo not shown) [Compound 4k, (3-Methylpiperidin-1-yl)(6-(3-(3-methylpiperidin-1-yl)propoxy)benzo[d]thiazol-2-yl)methanone], the inhibition at 10 µM on human recombinant MAO-B turned out to be 48 ± 5%; at human AChE it was 34.4 ± 2.15%; on human recombinant MAO-A it was 32 ± 2%; at BuChE from human serum it was 30 ± 5%. On human AChE, this compound returned a half-inhibitory concentration (IC50) greater than 10000 nM. This compound had a Ki at human H3R of 64 nM. In addition, the inhibition at 1 µM at human H1R was 42.9 ± 28.3%.

The record behind these values is publication PMC9937012 (Journal of Enzyme Inhibition and Medicinal Chemistry, 2023).
